Values of other authors in paper PMC6764291 (Frontiers in Oncology, 2019).

Key:
mutant p53 cells = details: in vitro, considerably higher concentrations than required for wt p53 cell lines; cited from earlier work
Description: As expected, the two p53 mutated cell lines did n ...

p53 = system: p53; parameters: method as in PMID 14704432; details: cited from earlier work

SMILES: COc1ccc(C2=N[C@H](c3ccc(Cl)cc3)[C@H](c3ccc(Cl)cc3)N2C(=O)N2CCN(C(C)=O)CC2)c(OC(C)C)c1 [Nutlin-1]
- effect on mutant p53 cells (mutant p53 cells): Some effect

SMILES: COc1ccc(C2=N[C@@H](c3ccc(Cl)cc3)[C@@H](c3ccc(Cl)cc3)N2C(=O)N2CCNC(=O)C2)c(OC(C)C)c1 [Nutlin-3]
- p53-expression (p53): increased p53-expression was directly correlated to increasing concentrations
